Data reported in publication PMC6817585, “Simultaneous Determination of Five Alkaloids by HPLC-MS/MS Combined With Micro-SPE in Rat Plasma and Its Application to Pharmacokinetics After Oral Administration of Lotus Leaf Extract” (Frontiers in Pharmacology, 2019).
Like-named read-outs stand apart in the source and are kept apart here.

How the values were obtained:
[1] = Pharmacokinetics of five alkaloids in rat plasma after oral administration of lotus leaf extract; assay type: in vivo, Male Sprague-Dawley rats; settings: oral lotus leaf extract 2.4 g·kg^−1; for MRT: read-out: MRT(0–tn); for MRT inf: read-out: MRT(0–∞); for Tmax: read-out: Tmax; for half-life: one compartment model, read-out: T1/2 (converted)
Experimental: All analyses were performed on Agilent 1200 HPLC system (Agilent Corporation, USA) and API 3200 triple-quadrupole mass spectrometer (Concord, Ontario, Canada) in multiple-reaction monitoring (MRM) with positive ionization mode. Acetonitrile (A) and formic acid aqueous solution (B) (0.1%, v/v) is used to separate the analytes on Eclipse plus C18 column (4.6 mm × 100 mm, 1.8 µm) with a guard C18 column (2.1 mm × 12.5 mm, 5 µm). The gradient of elution is as follows: 5%–60% A at 0 to 4 min, 60%–70% A at 4 to 5 min, 70%–93% A at 5 to 7 min, 93%–94% A at 7 to 11 min, 94%–5% A at 11 to 12 min, and 5%–5% A at 12 to 17 min. The flow rate and injection volume are 0.3 ml·min^-1 and 5 µl, respectively. The main parameters of ion source including the ion spray voltage, the curtain gas, and temperature are set at 5000 V, 35 psi, and 450°C, respectively.
The real plasma sample (100 µl) and IS solution (10 µl) were vortex-mixed for 1 min. The sample was carried out with the SPE column (Cleanert PEP-2, 40–60 µm, 60 Å, 10 mg/1 ml; Phenomenex, Torrance, CA, USA). First, SPE columns were activated by 50% methanol in water (1 ml) and 0.1% formic acid in water (1 ml) and were used to activate the SPE column in sequence. Second, columns were washed with 200 µl methanol (20%, v/v) and eluted with acetonitrile (400 µl) after the plasma samples were added. Finally, the eluent was centrifuged for 10 min with 14,000 rpm. Then final solutions were injected into the HPLC-MS/MS and analyzed.
The pharmacokinetic study was conducted in accordance with the Guidelines for the Care and Use of Laboratory Animals by the US National Institutes of Health and approved by the Animal Ethics Committee of Tianjin University of Traditional Chinese Medicine (permit number: TCM-LAEC2019022, Tianjin, China),. Male Sprague-Dawley rats (240–260 g) were fed in the animal laboratory of the Tianjin University of Traditional Chinese Medicine under the standard conditions. These rats were allowed free to get standard laboratory food and water and conformed for 1 week until 12 h before experiment. These rats (n = 10) were fasted, although they were still given water for 12 h, before the oral administration of lotus leaf extract. […] The plasma samples were centrifuged in 10 min at 7000 rpm and kept at −20°C until analyzed.
All of the pharmacokinetic parameters were calculated by one compartment model with DAS 1.0 software (Medical College of Wannan). The maximum drug concentration (Cmax) and the time to reach Cmax (Tmax) were acquired from observed concentration–time profile for oral administration in plasma. All data were shown as mean ± SD.

[2] = Stability of analytes in rat plasma QC samples (auto-sampler, freeze-thaw, short-time, long-term); assay type: in vitro ADME; settings: rat plasma QC, n = 6; for Remain, autosampler for 24 h: autosampler 24 h; for Remain, room temperature for 24 h: room temperature 24 h; for Remain, −80°C for 1 month: −80°C 1 month
Experimental: (§1) The stabilities (including auto-sampler, freeze–thaw cycles, and short-time and long-term stability) of all analytes were obtained by testing QC samples of four concentrations. Moreover, the stabilities for stock and working solution were assessed with mixed standard substance (100 ng·ml^−1) and the QC sample solutions of four concentration levels, respectively. These solutions were achieved by diluting stock solutions kept at 4°C for 2 weeks. For IS, the evaluated procedures of two stabilities were same as the five alkaloids.

[3] = Stability of stock and working solutions; assay type: physicochemical; settings: working solution, n = 6
Experimental: as §1

[4] = male, Sprague-Dawley, rat, in vivo, po, 2.4 g/kg, rat plasma, n = 10, mean ± SD
[5] = concentration LLOQ, from stock kept at 4°C for 2 weeks

## O=C1c2ccccc2-c2c3c(cc4ccnc1c24)OCO3 [Liriodenine, liriodenine]
[1]; male, Sprague-Dawley, rat, in vivo, po, 2.4 g/kg, rat plasma, n = 10, mean ± SD, read-out: AUC(0–tn)
  AUC: 415 ± 200 ng·h/mL
[1]; male, Sprague-Dawley, rat, in vivo, po, 2.4 g/kg, rat plasma, n = 10, mean ± SD, read-out: AUC(0–∞)
  AUC(0-inf): 429 ± 199 ng·h/mL
[1]; male, Sprague-Dawley, rat, in vivo, po, 2.4 g/kg, rat plasma, n = 10, mean ± SD, read-out: Cmax
  Cmax: 54.7 ± 31.8 ng/mL
[1]; [4]
  MRT: 7.11 ± 1.21 h
  MRT inf: 8.17 ± 1.86 h
  Tmax: 5.7 ± 2.83 h
  half-life: 226 ± 69 min
[1]; rat
  Absorption after orally administrating the lotus leaf extract (in words): slow absorption
[2]; 1 ng/ml
  Remain, autosampler for 24 h: 86.0%
  Remain, freeze thaw cycles: 86.9%
  Remain, room temperature for 24 h: 87.9%
  Remain, −80°C for 1 month: 107%
[2]; 40 ng/ml
  Remain, autosampler for 24 h: 105%
  Remain, freeze thaw cycles: 92.7%
  Remain, room temperature for 24 h: 96.9%
  Remain, −80°C for 1 month: 105%
[2]; 200 ng/ml
  Remain, autosampler for 24 h: 96.8%
  Remain, freeze thaw cycles: 90.5%
  Remain, room temperature for 24 h: 102%
  Remain, −80°C for 1 month: 104%
[2]; LLOQ
  Remain, autosampler for 24 h: 95.7%
  Remain, freeze thaw cycles: 91.7%
  Remain, room temperature for 24 h: 92.9%
  Remain, −80°C for 1 month: 98.9%
[3]; 1 ng/ml
  Remain, working solution: 96.9%
[3]; 40 ng/ml
  Remain, working solution: 91.7%
[3]; 200 ng/ml
  Remain, working solution: 112%
[3]; [5]
  Remain, working solution: 105%

## COc1cc2c3c(c1OC)-c1ccccc1C[C@H]3N(C)CC2 [Nunciferine, nunciferine]
[1]; [4]
  MRT: 5.49 ± 0.96 h
  MRT inf: 6.14 ± 1.47 h
  Tmax: 3.5 ± 1.84 h
  half-life: 371 ± 186 min
[1]; rat plasma
  AUCs(0–24 h): 2070 ± 919 ng·h/mL
[1]; rat plasma, n = 10, mean ± SD
  AUC(0–tn): 2069 ± 919 ng·h/mL
  AUC(0–∞): 2142 ± 961 ng·h/mL
  Cmax: 317.58 ± 175.05 ng/mL
[1]; rat plasma, n = 10, mean ± SD, listed as nunciferine
  Cmax: 317.6 ± 175.1 ng/mL
[1]; rat
  Plasma exposure (in words): abundant plasma exposure
[2]; 2 ng/ml
  Remain, autosampler for 24 h: 89.7%
  Remain, freeze thaw cycles: 92.5%
  Remain, room temperature for 24 h: 96.5%
  Remain, −80°C for 1 month: 96.3%
[2]; 100 ng/ml
  Remain, autosampler for 24 h: 98.4%
  Remain, freeze thaw cycles: 92.0%
  Remain, room temperature for 24 h: 109%
  Remain, −80°C for 1 month: 100%
[2]; 500 ng/ml
  Remain, autosampler for 24 h: 85.4%
  Remain, freeze thaw cycles: 85.3%
  Remain, room temperature for 24 h: 89.3%
  Remain, −80°C for 1 month: 91.4%
[2]; LLOQ
  Remain, autosampler for 24 h: 87.5%
  Remain, freeze thaw cycles: 95.9%
  Remain, room temperature for 24 h: 94.4%
  Remain, −80°C for 1 month: 99.4%
[3]; 2 ng/ml
  Remain, working solution: 92.5%
[3]; 100 ng/ml
  Remain, working solution: 98.7%
[3]; 500 ng/ml
  Remain, working solution: 108%
[3]; [5]
  Remain, working solution: 101%
